The source of these data is ChEMBL document CHEMBL3045936, “Synthesis of new piperidyl indanone derivatives as anticonvulsant agents” (Med Chem Res, 2012).

SMILES strings stand for the structures. Active and inactive are the calls of the source. No cut-off for these calls is given here.

Series [1] deals with Mus musculus. Briefly: Anticonvulsant activity in ip dosed Mus musculus Swiss albino (mouse) assessed as protection against maximal electroshock-induced seizures after 0.5 hr. The series is classed as functional. The settings on record: read-out: MED. For orientation: Protection in the maximal electroshock model is a classic sign of anticonvulsant action.
In series [2] the test system is Mus musculus. Put plainly: Neurotoxicity in Mus musculus Swiss albino (mouse) assessed as potentiation of ethanol-mediated effect at 100 to 300 mg/kg, ip administered 1 hr followed by ethanol challenge. The series is classed as toxicity, organism-based. Also noted: dose 100-300 mg/kg, route intraperitoneal. To be noted: in vivo.
In series [3] the test system is Mus musculus. Put plainly: Neurotoxicity in ip dosed Mus musculus Swiss albino (mouse) assessed as minimal motor impairment after 4 hr by rotorod test. In kind it is toxicity, organism-based. To be noted: in vivo. Background: Falling from the rotarod earlier than controls is read as motor impairment.
Series [4] relates to Mus musculus. Put plainly: Neurotoxicity in ip dosed Mus musculus Swiss albino (mouse) assessed as minimal motor impairment after 0.5 hr by rotorod test. In kind it is toxicity, organism-based. To be noted: in vivo.
Series [5] has as its system Mus musculus. Put plainly: Anticonvulsant activity in ip dosed Mus musculus Swiss albino (mouse) assessed as protection against subcutaneous pentylenetetrazole-induced seizures after 0.5 hr. In kind it is functional. The settings on record: read-out: MED.
In series [6] the test system is Mus musculus. Briefly: Anticonvulsant activity in ip dosed Mus musculus Swiss albino (mouse) assessed as protection against subcutaneous pentylenetetrazole-induced seizures after 4 hr. To be noted: read-out: MED. The series is classed as functional.
The test system of series [7] is Mus musculus. Put plainly: Anticonvulsant activity in ip dosed Mus musculus Swiss albino (mouse) assessed as protection against maximal electroshock-induced seizures after 4 hr. To be noted: read-out: MED. The series is classed as functional.
The test system of series [8] is Mus musculus. Briefly: Anticonvulsant activity in Mus musculus Swiss albino (mouse) assessed as protection against maximal electroshock-induced seizures at 300 mg/kg, ip after 4 hr. The series is classed as functional, organism-based. Also noted: dose 300 mg/kg.
Series [9] deals with Mus musculus. Briefly: Anticonvulsant activity in Mus musculus Swiss albino (mouse) assessed as protection against subcutaneous pentylenetetrazole-induced seizures at 300 mg/kg, ip after 0.5 hr. The series is classed as functional, organism-based. Also noted: dose 300 mg/kg.
For series [10], the system named is Mus musculus. Briefly: Neurotoxicity in Mus musculus Swiss albino (mouse) assessed as minimal motor impairment at 300 mg/kg, ip after 4 hr by rotorod test. The series is classed as toxicity, organism-based. The settings on record: in vivo. Details: dose 300 mg/kg, route intraperitoneal.
For series [11], the system named is Rattus norvegicus. Briefly: Anticonvulsant activity in Rattus norvegicus Wistar (rat) assessed as increase in GABA level in medulla oblongata region measured per 100 mg of tissue at 100 mg/kg, ip after 2 hr (reference value: 40.57 +/- 0.2 ug). In kind it is functional. To be noted: route intraperitoneal.
For series [12], the system named is Rattus norvegicus. Put plainly: Anticonvulsant activity in Rattus norvegicus Wistar (rat) assessed as increase in GABA level in cerebellum region measured per 100 mg of tissue at 100 mg/kg, ip after 2 hr (reference value: 25.27 +/- 0.57 ug). To be noted: route intraperitoneal. In kind it is functional.
The subject of series [13] is Rattus norvegicus. Put plainly: Anticonvulsant activity in Rattus norvegicus Wistar (rat) assessed as increase in GABA level in mid brain region measured per 100 mg of tissue at 100 mg/kg, ip after 2 hr (reference value: 44.38 +/- 0.219 ug). In kind it is functional. To be noted: route intraperitoneal.
The test system of series [14] is Rattus norvegicus. Put plainly: Anticonvulsant activity in Rattus norvegicus Wistar (rat) assessed as increase in GABA level in olfactory lob region measured per 100 mg of tissue at 100 mg/kg, ip after 2 hr (reference value: 13.22 +/- 0.03 ug). In kind it is functional. The settings on record: route intraperitoneal.
The nature of series [15]: Lipophilicity, log P of the compound. In kind it is physicochemical. The settings on record: octanol/water.
Series [16] relates to Mus musculus. Put plainly: Anticonvulsant activity in Mus musculus Swiss albino (mouse) assessed as protection against subcutaneous pentylenetetrazole-induced seizures at 300 mg/kg, ip after 4 hr. In kind it is functional, organism-based. Also noted: dose 300 mg/kg.
In series [17] the test system is Mus musculus. Briefly: Neurotoxicity in Mus musculus Swiss albino (mouse) assessed as minimal motor impairment at 300 mg/kg, ip after 0.5 hr by rotorod test. The settings on record: in vivo. Also noted: dose 300 mg/kg, route intraperitoneal. The series is classed as toxicity, organism-based.

Usually logP stands for a log measure of how a compound divides between an organic and an aqueous phase.

Take `CCCCNC(=S)N1CCC(CC2Cc3cc(OC)c(OC)cc3C2=O)CC1` (stereo not drawn): the minimal effective dose was determined as 100 mg/kg in the series on Mus musculus [1], 100 mg/kg in the series on Mus musculus [5], 300 mg/kg in the series on Mus musculus [6] and 100 mg/kg in the series with Mus musculus [7]. Also, the Activity entry with Mus musculus [2] is “Non-toxic”. Besides, the MTC in the series on Mus musculus [3] and in the series with Mus musculus [4] was 300 mg/kg each time.
On to `COc1cc2c(cc1OC)C(=O)C(CC1CCN(C(=S)Nc3cccc(Cl)c3)CC1)C2` (stereo not drawn), for which, in the series on Mus musculus [1], the minimal effective dose was 300 mg/kg. Further, the result in the series on Mus musculus [8] was inactive.
Turning to `CCCNC(=S)N1CCC(CC2Cc3cc(OC)c(OC)cc3C2=O)CC1` (stereo not drawn), the minimal effective dose came to 100 mg/kg in the series on Mus musculus [1], 300 mg/kg in the series with Mus musculus [6] and 300 mg/kg in the series with Mus musculus [7]. Also, the Activity entry in the series on Mus musculus [2] and with Mus musculus [10] was “Non-toxic” throughout. Besides, the MTC with Mus musculus [4] worked out at 300 mg/kg. Besides, the result with Mus musculus [9] was inactive.
With `COc1cc2c(cc1OC)C(=O)C(CC1CCN(C(=S)Nc3ccc(Cl)cc3)CC1)C2` (stereo not drawn), the minimal effective dose in the series with Mus musculus [1] worked out at 30 mg/kg; with Mus musculus [5], 100 mg/kg; in the series on Mus musculus [6], 300 mg/kg; with Mus musculus [7], 100 mg/kg. The Activity result in the series on Mus musculus [2] is “Non-toxic”; in the series with Rattus norvegicus [11] it was 40.75 µg; in the series with Rattus norvegicus [12] it was 27.66 µg; in the series on Rattus norvegicus [13] it was 44.81 µg; in the series on Rattus norvegicus [14] it was 13.47 µg. The MTC in the series with Mus musculus [3] amounted to 300 mg/kg; in the series on Mus musculus [4], 100 mg/kg. The logP in series [15] turned out to be 5.11.
For the compound `O=C1NC(=O)C(c2ccccc2)(c2ccccc2)N1` [PHENYTOIN], the minimal effective dose in the series on Mus musculus [1] and with Mus musculus [7] was 30 mg/kg in each case. The MTC in the series with Mus musculus [3] and in the series with Mus musculus [4] was 100 mg/kg each time. Further, the outcome in the series with Mus musculus [16] and with Mus musculus [9] was inactive.
For the compound `COc1cc2c(cc1OC)C(=O)C(CC1CCN(C(=S)Nc3cccc([N+](=O)[O-])c3)CC1)C2` (stereo not drawn), in the series with Mus musculus [1], the minimal effective dose came out at 300 mg/kg. Besides, the result with Mus musculus [8] was inactive.
For `COc1cc2c(cc1OC)C(=O)C(CC1CCN(C(=S)Nc3cccc(C)c3)CC1)C2` (stereo not drawn), the minimal effective dose with Mus musculus [1] worked out at 300 mg/kg. Besides, the result in the series with Mus musculus [8] was inactive.
For the compound `COc1cc2c(cc1OC)C(=O)C(CC1CCN(C(=S)Nc3ccccc3C)CC1)C2` (stereo not drawn), the figures for the minimal effective dose in the series on Mus musculus [1] and in the series with Mus musculus [5] were 100 mg/kg and 300 mg/kg, respectively. Further, the Activity result in the series with Mus musculus [2] was “Non-toxic”. The MTC with Mus musculus [3] came to 300 mg/kg; in the series with Mus musculus [4] it was 100 mg/kg. Moreover, the outcome with Mus musculus [16] and with Mus musculus [8] was inactive.
`COc1cc2c(cc1OC)C(=O)C(CC1CCN(C(=S)Nc3ccccc3)CC1)C2` (stereo not drawn): the minimal effective dose with Mus musculus [1] came out at 100 mg/kg; in the series with Mus musculus [5], 100 mg/kg; in the series with Mus musculus [6] it was 300 mg/kg; in the series with Mus musculus [7], 300 mg/kg. In the series on Mus musculus [4], the MTC amounted to 300 mg/kg. Further, the Activity result in the series with Mus musculus [10] is given as “Non-toxic”.
With `COc1cc2c(cc1OC)C(=O)C(CC1CCN(C(=S)Nc3ccc([N+](=O)[O-])cc3)CC1)C2` (stereo not drawn), the minimal effective dose with Mus musculus [1] was 30 mg/kg; in the series with Mus musculus [5] it was 100 mg/kg; in the series on Mus musculus [7], 300 mg/kg. Also, the Activity entry with Mus musculus [2] was “Non-toxic”; in the series with Rattus norvegicus [11] it was 35.13 µg; in the series with Rattus norvegicus [12], 28.06 µg; in the series with Rattus norvegicus [13] it was 59.33 µg; with Rattus norvegicus [14], 15.71 µg; with Mus musculus [10] it was “Non-toxic”. For the same compound, the MTC with Mus musculus [4] came to 300 mg/kg. The outcome with Mus musculus [16] was inactive. For the same compound, in series [15], the log partition coefficient (logP) turned out to be 4.58.
As to `COc1cc2c(cc1OC)C(=O)C(CC1CCN(C(=S)Nc3ccccc3Cl)CC1)C2` (stereo not drawn), the minimal effective dose turned out to be 100 mg/kg with Mus musculus [1], 300 mg/kg in the series on Mus musculus [5], 300 mg/kg with Mus musculus [6] and 300 mg/kg with Mus musculus [7]. The Activity entry is on record as “Toxic” in the series with Mus musculus [2] and “Non-toxic” in the series on Mus musculus [10]. In the series with Mus musculus [4], the MTC came out at 300 mg/kg.
In the case of `NC(=O)N1c2ccccc2C=Cc2ccccc21` [CARBAMAZEPINE], the minimal effective dose was 30 mg/kg in the series with Mus musculus [1], 300 mg/kg in the series with Mus musculus [5], 100 mg/kg in the series with Mus musculus [6] and 100 mg/kg in the series with Mus musculus [7]. Also, the MTC in the series with Mus musculus [4] was determined as 300 mg/kg. The Activity result with Mus musculus [10] is “Non-toxic”.
On to `COc1cc2c(cc1OC)C(=O)C(CC1CCN(C(=S)Nc3ccccc3[N+](=O)[O-])CC1)C2` (stereo not drawn), for which the Activity result in the series with Mus musculus [17] was “Non-toxic”. The minimal effective dose with Mus musculus [1] was found to be 100 mg/kg; in the series with Mus musculus [7], 300 mg/kg. Moreover, the MTC in the series on Mus musculus [3] is 300 mg/kg. In addition, the result in the series with Mus musculus [16] and in the series with Mus musculus [9] was inactive.
With `COc1cc2c(cc1OC)C(=O)C(CC1CCN(C(=S)Nc3ccc(C)cc3)CC1)C2` (stereo not drawn), the minimal effective dose in the series on Mus musculus [1] is 30 mg/kg; in the series with Mus musculus [5], 100 mg/kg; in the series with Mus musculus [6], 300 mg/kg; in the series with Mus musculus [7], 100 mg/kg. In addition, the Activity in the series with Rattus norvegicus [11] is 49.82 µg; in the series on Rattus norvegicus [12] it was 31.83 µg; in the series with Rattus norvegicus [13], 61.05 µg; in the series with Rattus norvegicus [14], 15.62 µg; with Mus musculus [10], “Non-toxic”. Also, in the series with Mus musculus [4], the MTC stood at 300 mg/kg. The compound further returned a logP in [15] of 4.58.
